Starred links: 1 amine or outer side, 2 acyl side, 3 side chain; linkers in the order of their positions; H or OH if unused. Positions of bridges follow the written chain, without caps; N, C: chain ends. Non-standard residues stand in square brackets, D forms with d. Residues, ends and D or L forms follow the SMILES beside them. ξ: configuration not given here. *: point of attachment. X6 = CC(CN1CCN(C)CC1)SC=C1CN([*:1])C(C(=O)[*:2])CC1=O; X4 = CN(C)CC(CN(C)C)SCC1CN([*:1])C(C(=O)[*:2])CC1=O; X5 = CN1CCN(CCCSCC2CN([*:1])C(C(=O)[*:2])CC2=O)CC1; X2 = CN1CCC(SCC2CN([*:1])C(C(=O)[*:2])CC2=O)CC1; ξNMePhe(4-NMe2) = CNC(Cc1ccc(N(C)C)cc1)C(=O)O; X1 = CN(C)CCOC=C1CN([*:1])C(C(=O)[*:2])CC1=O; X3 = CN(C)CCNC=C1CN([*:1])C(C(=O)[*:2])CC1=O; X7 = CN(C)CCCSCC1CN([*:1])C(C(=O)[*:2])CC1=O; Picolinoyl(3-OH) = O=C(c1ncccc1O)*; NMeF = CN[CH](Cc1ccccc1)C(=O)O; Phg = N[CH](C(=O)O)c1ccccc1; Abu = CC[CH](N)C(=O)O
Assay: Solubility in water (aqueous solution obtained)
Assay type: physicochemical
Conditions: distilled water, no hydrochloride stated

First: 5γ-[N-(carboxymethyl)methylamino]-5γ-deoxypristinamycin IA [product K]
Second: CCC1NC(=O)C(NC(=O)c2ncccc2O)C(C)OC(=O)C(c2ccccc2)NC(=O)C2CC(=O)C(=CNCCN(C)C)CN2C(=O)C(Cc2ccc(N(C)C)cc2)N(C)C(=O)C2CCCN2C1=O (centres unmarked) [product AG, 5δ-(2-dimethylaminoethyl)aminomethylenepristinamycin IA] ({Picolinoyl(3-OH)}-T[Abu]P[ξNMePhe(4-NMe2)][X3][Phg]; ester 1-C; configuration not given here)
The “Solubility: concentration of aqueous solution” value of the first is higher: 2% for the first, 1% for the second.

Assay: Solubility in water (aqueous solution obtained)
Assay type: physicochemical
Conditions: hydrochloride / dissolved with aqueous hydrochloric acid and distilled water
Excerpt: In the examples described below, unless stated otherwise, all the products can be dissolved at a strength of at least 2%, in the form of hydrochloride.

“5γ-Deoxy-5γ-(2-dimethylaminoethyl)aminopristinamycin IA [compound 2]” and “5γ-deoxy-5γ-(4-diethylamino-2-methylbutyl)aminopristinamycin IA [product F]” are the same in “Solubility: concentration of aqueous solution, in the form of hydrochloride” value (from here on “Solubility: concentration … of hydrochloride”): 10% for the first, 10% for the second.

“5γ-deoxy-5γ-[N-(2-dimethylaminoethyl)-N-methylamino]pristinamy cin IA [product D]” and “5γ-deoxy-5γ-[N-(2-dimethylaminoethyl)acetamido]pristinamycin IA [product L]” are the same in “Solubility: concentration … of hydrochloride” value: 10% for the first, 10% for the second.

Going from “5γ-deoxy-5γ-[N-(3-dimethylaminopropyl)acetamido]pristinamycin IA [product M]” to “5γ-deoxy-5γ-dimethylaminopristinamycin IA [product B]”, the “Solubility: concentration … of hydrochloride” value falls from 10% to 2%.

Compared with “5γ-deoxy-5γ-methylaminopristinamycin IA [Reference Example 9]”, “5γ-deoxy-(3-dimethylaminopropyl)-5γ-amino-pristinamycin IA [product A]” is higher in “Solubility: concentration … of hydrochloride” value: 1% for the first, 10% for the second.

First: 5δ-(1-methyl-4-piperidyl)aminomethylenepristinamycin IA [product AT]
Second: 5δ-(2-diethylaminoethyl)thiomethylpristinamycin IA [product AF1]
The “Solubility: concentration … of hydrochloride” value of the first is higher: 10% for the first, 5% for the second.

Compared with “5δ-(2-dimethylaminoethyl)thiomethylenepristinamycin IA [product AX]”, “5δ-(3-dimethylamino-2-propyl)thiomethylenepristinamycin IA [Reference Example 57]” is higher in “Solubility: concentration … of hydrochloride” value: 1% for the first, 5% for the second.

“5δ-(3-dimethylaminopropyl)thiomethylpristinamycin IA [product AA]” and “5δ-(5-diethylamino-2-pentyl)thiomethylenepristinamycin IA [Reference Example 58]” are the same in “Solubility: concentration … of hydrochloride” value: 10% for the first, 10% for the second.

“5δ-[2-(4-methyl-1-piperazinyl)ethyl]thiomethylpristinamycin IA [product AC]” and “26-(2-Diisopropylaminoethyl)sulphonylpristinamycin IIB [Example 25]” are the same in “Solubility: concentration … of hydrochloride” value: 5% for the first, 5% for the second.

Going from `CC1=CC(O)CC(=O)Cc2nc(co2)C(=O)N2CCC([S+]([O-])CCN(C)C)C2C(=O)OC(C(C)C)C(C)C=CC(=O)NCC=C1` (centres unmarked) [Example 4, 26-(2-dimethylaminoethyl)sulphinylpristinamycin IIB] to `CCN(C)CC[S+]([O-])C1CCN2C(=O)c3coc(n3)CC(=O)CC(O)C=C(C)C=CCNC(=O)C=CC(C)C(C(C)C)OC(=O)C12` (centres unmarked) [Example 5, 2-(N-methyl-N-ethyl-2-aminoethyl)sulphinylpristinamycin IIB], the “Solubility: concentration … of hydrochloride” value rises from 3.7% to 10%.

Compared with `CC1=CC(O)CC(=O)Cc2nc(co2)C(=O)N2CCC([S+]([O-])CCCN(C)C)C2C(=O)OC(C(C)C)C(C)C=CC(=O)NCC=C1` (centres unmarked) [Example 6, 26-(3-dimethylaminopropyl)sulphinylpristinamycin IIB], `CC1=CC(O)CC(=O)Cc2nc(co2)C(=O)N2CCC([S+]([O-])CC(Cc3ccccc3)N(C)C)C2C(=O)OC(C(C)C)C(C)C=CC(=O)NCC=C1` [Example 11, 26-[(2S)-2-dimethylamino-3-phenylpropyl]sulphinylpristinamycin IIB] is lower in “Solubility: concentration … of hydrochloride” value: 2% for the first, 1% for the second.

First: CCCCCCCCCCNCC[S+]([O-])C1CCN2C(=O)c3coc(n3)CC(=O)CC(O)C=C(C)C=CCNC(=O)C=CC(C)C(C(C)C)OC(=O)C12 (centres unmarked) [Example 18, 26-(2-decylaminoethyl)sulphinylpristinamycin IIB]
Second: CCC1NC(=O)C(NC(=O)c2ncccc2O)C(C)OC(=O)C(c2ccccc2)NC(=O)C2CC(=O)C(=CSC(C)CN3CCN(C)CC3)CN2C(=O)C(Cc2ccc(N(C)C)cc2)N(C)C(=O)C2CCCN2C1=O (centres unmarked) [product AAN, 5δ-[3-(4-methyl-1-piperazinyl)-2-propyl]thiomethylenepristinamycin IA] ({Picolinoyl(3-OH)}-T[Abu]P[ξNMePhe(4-NMe2)][X6][Phg]; ester 1-C; configuration not given here)
The “Solubility: concentration … of hydrochloride” value of the first is lower: 1% for the first, 10% for the second.

Compared with `CCC1NC(=O)C(NC(=O)c2ncccc2O)C(C)OC(=O)C(c2ccccc2)NC(=O)C2CC(=O)C(=COCCN(C)C)CN2C(=O)C(Cc2ccc(N(C)C)cc2)N(C)C(=O)C2CCCN2C1=O` (centres unmarked) [product AAQ, 5δ-(2-dimethylaminoethoxymethylene)pristinamycin IA] ({Picolinoyl(3-OH)}-T[Abu]P[ξNMePhe(4-NMe2)][X1][Phg]; ester 1-C; configuration not given here), `CCC1NC(=O)C(NC(=O)c2ncccc2O)C(C)OC(=O)C(c2ccccc2)NC(=O)C2CC(=O)C(CSCCCN(C)C)CN2C(=O)C(Cc2ccccc2)N(C)C(=O)C2CCCN2C1=O` (centres unmarked) [product AB, 5δ-(3-dimethylaminopropyl)thiomethylvirginiamycin S] ({Picolinoyl(3-OH)}-T[Abu]P[NMeF][X7][Phg]; ester 1-C; configuration not given here) is higher in “Solubility: concentration … of hydrochloride” value: 1% for the first, 10% for the second.

First: CCC1NC(=O)C(NC(=O)c2ncccc2O)C(C)OC(=O)C(c2ccccc2)NC(=O)C2CC(=O)C(CSCCCN3CCN(C)CC3)CN2C(=O)C(Cc2ccc(N(C)C)cc2)N(C)C(=O)C2CCCN2C1=O (centres unmarked) [product AD, 5δ-[3-(4-methyl-1-piperazinyl)propyl]thiomethylpristinamycin IA] ({Picolinoyl(3-OH)}-T[Abu]P[ξNMePhe(4-NMe2)][X5][Phg]; ester 1-C; configuration not given here)
Second: CCC1NC(=O)C(NC(=O)c2ncccc2O)C(C)OC(=O)C(c2ccccc2)NC(=O)C2CC(=O)C(CSC(CN(C)C)CN(C)C)CN2C(=O)C(Cc2ccc(N(C)C)cc2)N(C)C(=O)C2CCCN2C1=O (centres unmarked) [product AE, 5δ-[1,3-bis(dimethylamino)-2-propyl]thiomethylpristinamycin IA] ({Picolinoyl(3-OH)}-T[Abu]P[ξNMePhe(4-NMe2)][X4][Phg]; ester 1-C; configuration not given here)
The “Solubility: concentration … of hydrochloride” value of the first is higher: 10% for the first, 7.5% for the second.

With `CCC1NC(=O)C(NC(=O)c2ncccc2O)C(C)OC(=O)C(c2ccccc2)NC(=O)C2CC(=O)C(CSC3CCN(C)CC3)CN2C(=O)C(Cc2ccc(N(C)C)cc2)N(C)C(=O)C2CCCN2C1=O` (centres unmarked) [product AF, 5δ-(1-methyl-4-piperidyl)thiomethylpristinamycin IA] ({Picolinoyl(3-OH)}-T[Abu]P[ξNMePhe(4-NMe2)][X2][Phg]; ester 1-C; configuration not given here) the “Solubility: concentration … of hydrochloride” value was 5%.
